How the values were obtained:
[1] = biological target: Interleukin-1 receptor-associated kinase 4 (Homo sapiens) (UniProt Q9NWZ3); details: Compound concentration 1000.0 nM
[2] = biological target: GABA-A receptor; anion channel (Rattus norvegicus) (UniProt O09028+P15431+P18506+P18508+P19969+P20236+P23574+P23576+P28471+P28473+P30191+P62813+P63079+P63138+Q91ZM7+Q9ES14); details: Compound concentration 10.0 uM
[3] = biological target: Serine/threonine-protein kinase 38-like (Homo sapiens) (UniProt Q9Y2H1); details: Compound concentration 1000.0 nM
[4] = biological target: Beta-3 adrenergic receptor (Homo sapiens) (UniProt P13945); details: Compound concentration 10.0 uM
[5] = biological target: Histamine H4 receptor (Homo sapiens) (UniProt Q9H3N8); details: Compound concentration 10.0 uM
[6] = biological target: Mitogen-activated protein kinase 8 (Homo sapiens) (UniProt P45983); details: Compound concentration 1000.0 nM
[7] = biological target: Fibroblast growth factor receptor 1 (Homo sapiens) (UniProt P11362); details: Compound concentration 1000.0 nM
[8] = biological target: Tyrosine-protein kinase receptor UFO (Homo sapiens) (UniProt P30530); details: Compound concentration 1000.0 nM
[9] = biological target: Casein kinase I isoform alpha-like (Homo sapiens) (UniProt Q8N752); details: Compound concentration 1000.0 nM
[10] = biological target: Serine/threonine-protein kinase DCLK1 (Homo sapiens) (UniProt O15075); details: Compound concentration 1000.0 nM
[11] = system: Mast/stem cell growth factor receptor Kit (Homo sapiens), P10721 [D816H]; details: Compound concentration 1000.0 nM
Mast/stem cell growth factor receptor Kit (Homo sapiens), P10721 [D816H], sequence (P10721 whole entry D816H): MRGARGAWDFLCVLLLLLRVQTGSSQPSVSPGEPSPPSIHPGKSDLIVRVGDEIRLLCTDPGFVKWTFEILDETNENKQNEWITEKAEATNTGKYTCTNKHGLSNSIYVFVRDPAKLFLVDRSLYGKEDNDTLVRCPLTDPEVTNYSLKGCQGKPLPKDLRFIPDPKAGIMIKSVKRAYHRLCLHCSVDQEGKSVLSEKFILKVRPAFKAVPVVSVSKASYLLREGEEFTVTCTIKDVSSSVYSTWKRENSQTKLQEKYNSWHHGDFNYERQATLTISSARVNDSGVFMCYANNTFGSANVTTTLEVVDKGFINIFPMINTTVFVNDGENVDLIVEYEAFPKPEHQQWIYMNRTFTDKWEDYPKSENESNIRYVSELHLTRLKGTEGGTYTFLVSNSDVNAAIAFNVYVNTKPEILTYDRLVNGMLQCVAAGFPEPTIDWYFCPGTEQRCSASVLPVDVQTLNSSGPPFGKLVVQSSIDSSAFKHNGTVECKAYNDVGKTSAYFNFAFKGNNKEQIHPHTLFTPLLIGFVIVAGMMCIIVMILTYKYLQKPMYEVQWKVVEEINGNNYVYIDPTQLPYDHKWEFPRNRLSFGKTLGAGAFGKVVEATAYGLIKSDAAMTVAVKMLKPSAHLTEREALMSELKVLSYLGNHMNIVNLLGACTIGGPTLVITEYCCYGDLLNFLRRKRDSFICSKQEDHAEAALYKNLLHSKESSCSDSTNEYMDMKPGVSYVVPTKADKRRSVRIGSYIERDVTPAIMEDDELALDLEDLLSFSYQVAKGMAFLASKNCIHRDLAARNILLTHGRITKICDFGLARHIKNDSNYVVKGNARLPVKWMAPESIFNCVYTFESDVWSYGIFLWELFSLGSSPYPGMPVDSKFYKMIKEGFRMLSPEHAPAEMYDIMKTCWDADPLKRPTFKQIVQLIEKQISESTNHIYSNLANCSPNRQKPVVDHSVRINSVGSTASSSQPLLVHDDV

[12] = biological target: MAP/microtubule affinity-regulating kinase 4 (Homo sapiens) (UniProt Q96L34); details: Compound concentration 1000.0 nM
[13] = biological target: Serine/threonine-protein kinase ULK3 (Homo sapiens) (UniProt Q6PHR2); details: Compound concentration 1000.0 nM
[14] = biological target: Dual specificity testis-specific protein kinase 1 (Homo sapiens) (UniProt Q15569); details: Compound concentration 1000.0 nM
[15] = biological target: Rhodopsin kinase GRK7 (Homo sapiens) (UniProt Q8WTQ7); details: Compound concentration 1000.0 nM
[16] = biological target: Aurora kinase B (Homo sapiens) (UniProt Q96GD4); details: Compound concentration 1000.0 nM
[17] = biological target: Mitogen-activated protein kinase kinase kinase kinase 4 (Homo sapiens) (UniProt O95819); details: Compound concentration 1000.0 nM
Mitogen-activated protein kinase kinase kinase kinase 4 (Homo sapiens), sequence (O95819 2-1239 limits assumed): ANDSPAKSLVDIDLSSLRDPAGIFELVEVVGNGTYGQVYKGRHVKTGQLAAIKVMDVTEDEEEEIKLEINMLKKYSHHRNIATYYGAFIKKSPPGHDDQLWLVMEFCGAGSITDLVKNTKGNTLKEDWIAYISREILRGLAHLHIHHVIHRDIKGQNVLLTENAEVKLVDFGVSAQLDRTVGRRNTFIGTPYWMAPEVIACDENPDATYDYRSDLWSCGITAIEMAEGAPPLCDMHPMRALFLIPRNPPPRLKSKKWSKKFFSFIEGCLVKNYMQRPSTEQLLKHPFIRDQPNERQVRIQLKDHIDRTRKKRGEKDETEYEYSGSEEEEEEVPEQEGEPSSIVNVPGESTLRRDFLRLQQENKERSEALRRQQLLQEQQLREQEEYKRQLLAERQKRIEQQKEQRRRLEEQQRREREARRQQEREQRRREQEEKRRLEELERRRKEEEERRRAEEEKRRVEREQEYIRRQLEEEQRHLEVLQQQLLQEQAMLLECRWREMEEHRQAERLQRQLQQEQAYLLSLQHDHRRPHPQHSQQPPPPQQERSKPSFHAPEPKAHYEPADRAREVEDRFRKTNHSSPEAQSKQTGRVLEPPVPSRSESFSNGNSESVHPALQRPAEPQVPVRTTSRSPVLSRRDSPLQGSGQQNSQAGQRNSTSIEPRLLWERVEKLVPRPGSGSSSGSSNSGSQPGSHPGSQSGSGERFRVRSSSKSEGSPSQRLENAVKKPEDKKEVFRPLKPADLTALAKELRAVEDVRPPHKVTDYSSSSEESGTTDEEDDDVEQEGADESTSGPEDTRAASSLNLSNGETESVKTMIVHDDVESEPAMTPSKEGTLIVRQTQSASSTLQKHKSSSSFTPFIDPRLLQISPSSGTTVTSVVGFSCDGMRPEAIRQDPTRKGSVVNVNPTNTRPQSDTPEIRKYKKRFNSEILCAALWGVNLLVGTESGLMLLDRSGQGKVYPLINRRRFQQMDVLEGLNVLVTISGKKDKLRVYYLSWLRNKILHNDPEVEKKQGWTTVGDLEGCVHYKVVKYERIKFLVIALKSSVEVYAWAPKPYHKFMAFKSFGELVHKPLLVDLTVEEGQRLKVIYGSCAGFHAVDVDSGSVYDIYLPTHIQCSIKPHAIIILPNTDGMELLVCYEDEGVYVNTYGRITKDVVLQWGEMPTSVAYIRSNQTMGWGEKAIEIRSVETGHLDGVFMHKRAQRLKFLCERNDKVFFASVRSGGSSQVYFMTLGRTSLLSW

[18] = biological target: Ribosomal protein S6 kinase alpha-1 (Homo sapiens) (UniProt Q15418); details: Compound concentration 1000.0 nM
[19] = biological target: Serine/threonine-protein kinase STK11 (Homo sapiens) (UniProt Q15831); details: Compound concentration 1000.0 nM
[20] = biological target: Phosphatidylinositol 4,5-bisphosphate 3-kinase catalytic subunit alpha isoform (Homo sapiens) (UniProt P42336); details: Compound concentration 1000.0 nM
[21] = biological target: Mitogen-activated protein kinase kinase kinase 3 (Homo sapiens) (UniProt Q99759); details: Compound concentration 1000.0 nM
[22] = biological target: Muscarinic acetylcholine receptor M5 (Homo sapiens) (UniProt P08912); details: Compound concentration 10.0 uM
Muscarinic acetylcholine receptor M5 (Homo sapiens), sequence (P08912 whole entry): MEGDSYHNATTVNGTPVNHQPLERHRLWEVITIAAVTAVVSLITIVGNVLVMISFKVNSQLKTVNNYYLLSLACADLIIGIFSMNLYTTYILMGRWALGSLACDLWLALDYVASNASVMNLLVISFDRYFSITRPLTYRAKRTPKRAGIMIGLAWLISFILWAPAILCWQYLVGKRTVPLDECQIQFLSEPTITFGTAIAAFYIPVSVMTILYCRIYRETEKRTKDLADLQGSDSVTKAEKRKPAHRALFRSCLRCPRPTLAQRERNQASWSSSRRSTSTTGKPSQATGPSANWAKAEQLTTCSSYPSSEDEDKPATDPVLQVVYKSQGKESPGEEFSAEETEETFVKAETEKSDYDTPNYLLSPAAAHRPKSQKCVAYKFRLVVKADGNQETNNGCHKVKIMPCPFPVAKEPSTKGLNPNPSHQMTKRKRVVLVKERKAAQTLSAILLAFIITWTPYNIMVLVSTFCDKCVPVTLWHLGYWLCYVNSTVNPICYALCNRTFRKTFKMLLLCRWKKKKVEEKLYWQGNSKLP

[23] = biological target: Cyclin-dependent kinase 15 (Homo sapiens) (UniProt Q96Q40); details: Compound concentration 1000.0 nM
[24] = system: Epidermal growth factor receptor (Homo sapiens), P00533 [UNDEFINED MUTATION]; details: Compound concentration 1000.0 nM
[25] = biological target: Serine/threonine-protein kinase 10 (Homo sapiens) (UniProt O94804); details: Compound concentration 1000.0 nM
[26] = biological target: Serine/threonine-protein kinase ICK (Homo sapiens) (UniProt Q9UPZ9); details: Compound concentration 1000.0 nM
[27] = biological target: 3-phosphoinositide-dependent protein kinase 1 (Homo sapiens) (UniProt O15530); details: Compound concentration 1000.0 nM
[28] = biological target: Tyrosine-protein kinase Fer (Homo sapiens) (UniProt P16591); details: Compound concentration 1000.0 nM
[29] = biological target: Beta-2 adrenergic receptor (Homo sapiens) (UniProt P07550); details: Compound concentration 10.0 uM
[30] = biological target: Serine/threonine-protein kinase Nek6 (Homo sapiens) (UniProt Q9HC98); details: Compound concentration 1000.0 nM
[31] = biological target: Phosphatidylinositol 3-kinase C2 domain-containing subunit gamma (Homo sapiens) (UniProt O75747); details: Compound concentration 1000.0 nM
Phosphatidylinositol 3-kinase C2 domain-containing subunit gamma (Homo sapiens), sequence (O75747 whole entry, the tested form may be a part): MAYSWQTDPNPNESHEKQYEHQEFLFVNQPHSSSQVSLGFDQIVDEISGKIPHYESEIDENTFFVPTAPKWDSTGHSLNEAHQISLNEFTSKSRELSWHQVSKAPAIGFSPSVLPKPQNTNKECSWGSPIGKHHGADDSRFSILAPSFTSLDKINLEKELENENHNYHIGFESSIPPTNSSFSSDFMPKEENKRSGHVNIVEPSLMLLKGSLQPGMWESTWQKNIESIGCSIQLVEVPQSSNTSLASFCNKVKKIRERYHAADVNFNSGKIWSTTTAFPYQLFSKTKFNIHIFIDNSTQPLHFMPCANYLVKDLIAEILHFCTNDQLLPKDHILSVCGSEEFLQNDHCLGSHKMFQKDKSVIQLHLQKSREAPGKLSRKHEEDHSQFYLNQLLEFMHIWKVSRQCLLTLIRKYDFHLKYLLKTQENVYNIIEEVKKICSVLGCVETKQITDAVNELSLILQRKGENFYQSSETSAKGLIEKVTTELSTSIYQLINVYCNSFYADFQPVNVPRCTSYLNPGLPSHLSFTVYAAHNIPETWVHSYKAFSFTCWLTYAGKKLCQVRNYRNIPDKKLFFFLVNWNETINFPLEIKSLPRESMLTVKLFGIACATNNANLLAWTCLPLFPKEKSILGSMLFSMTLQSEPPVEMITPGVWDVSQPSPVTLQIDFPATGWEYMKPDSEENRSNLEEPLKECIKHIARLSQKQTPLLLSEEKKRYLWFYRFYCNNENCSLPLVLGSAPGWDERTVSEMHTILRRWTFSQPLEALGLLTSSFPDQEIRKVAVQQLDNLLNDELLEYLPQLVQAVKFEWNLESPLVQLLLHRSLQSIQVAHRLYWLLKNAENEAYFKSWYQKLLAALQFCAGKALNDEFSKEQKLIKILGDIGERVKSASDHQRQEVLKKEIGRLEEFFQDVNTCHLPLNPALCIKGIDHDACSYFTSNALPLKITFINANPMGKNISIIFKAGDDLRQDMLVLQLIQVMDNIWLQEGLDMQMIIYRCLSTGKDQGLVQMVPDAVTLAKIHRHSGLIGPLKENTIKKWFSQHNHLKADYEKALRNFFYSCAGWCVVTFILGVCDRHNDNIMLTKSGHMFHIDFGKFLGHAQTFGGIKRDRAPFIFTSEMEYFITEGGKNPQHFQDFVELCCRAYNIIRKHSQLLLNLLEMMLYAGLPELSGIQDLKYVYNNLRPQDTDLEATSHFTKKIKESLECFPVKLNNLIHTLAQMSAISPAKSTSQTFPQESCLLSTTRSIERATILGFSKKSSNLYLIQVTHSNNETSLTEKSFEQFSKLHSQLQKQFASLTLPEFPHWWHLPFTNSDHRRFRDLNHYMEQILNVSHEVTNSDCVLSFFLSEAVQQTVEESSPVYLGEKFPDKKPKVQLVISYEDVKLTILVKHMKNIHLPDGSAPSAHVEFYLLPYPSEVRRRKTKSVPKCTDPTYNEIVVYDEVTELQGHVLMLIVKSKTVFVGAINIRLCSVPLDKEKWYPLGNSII

[32] = biological target: Serine/threonine-protein kinase 25 (Homo sapiens) (UniProt O00506); details: Compound concentration 1000.0 nM
[33] = system: Epidermal growth factor receptor (Homo sapiens), P00533 [L858R,T790M]; details: Compound concentration 1000.0 nM
[34] = biological target: Tyrosine-protein kinase TXK (Homo sapiens) (UniProt P42681); details: Compound concentration 1000.0 nM
[35] = system: Phosphatidylinositol 4,5-bisphosphate 3-kinase catalytic subunit alpha isoform (Homo sapiens), P42336 [E545K]; details: Compound concentration 1000.0 nM
[36] = biological target: Vascular endothelial growth factor receptor 1 (Homo sapiens) (UniProt P17948); details: Compound concentration 1000.0 nM
[37] = biological target: Mitogen-activated protein kinase kinase kinase kinase 3 (Homo sapiens) (UniProt Q8IVH8); details: Compound concentration 1000.0 nM
[38] = biological target: Mitogen-activated protein kinase kinase kinase 11 (Homo sapiens) (UniProt Q16584); details: Compound concentration 1000.0 nM
Mitogen-activated protein kinase kinase kinase 11 (Homo sapiens), sequence (Q16584 whole entry, looked up): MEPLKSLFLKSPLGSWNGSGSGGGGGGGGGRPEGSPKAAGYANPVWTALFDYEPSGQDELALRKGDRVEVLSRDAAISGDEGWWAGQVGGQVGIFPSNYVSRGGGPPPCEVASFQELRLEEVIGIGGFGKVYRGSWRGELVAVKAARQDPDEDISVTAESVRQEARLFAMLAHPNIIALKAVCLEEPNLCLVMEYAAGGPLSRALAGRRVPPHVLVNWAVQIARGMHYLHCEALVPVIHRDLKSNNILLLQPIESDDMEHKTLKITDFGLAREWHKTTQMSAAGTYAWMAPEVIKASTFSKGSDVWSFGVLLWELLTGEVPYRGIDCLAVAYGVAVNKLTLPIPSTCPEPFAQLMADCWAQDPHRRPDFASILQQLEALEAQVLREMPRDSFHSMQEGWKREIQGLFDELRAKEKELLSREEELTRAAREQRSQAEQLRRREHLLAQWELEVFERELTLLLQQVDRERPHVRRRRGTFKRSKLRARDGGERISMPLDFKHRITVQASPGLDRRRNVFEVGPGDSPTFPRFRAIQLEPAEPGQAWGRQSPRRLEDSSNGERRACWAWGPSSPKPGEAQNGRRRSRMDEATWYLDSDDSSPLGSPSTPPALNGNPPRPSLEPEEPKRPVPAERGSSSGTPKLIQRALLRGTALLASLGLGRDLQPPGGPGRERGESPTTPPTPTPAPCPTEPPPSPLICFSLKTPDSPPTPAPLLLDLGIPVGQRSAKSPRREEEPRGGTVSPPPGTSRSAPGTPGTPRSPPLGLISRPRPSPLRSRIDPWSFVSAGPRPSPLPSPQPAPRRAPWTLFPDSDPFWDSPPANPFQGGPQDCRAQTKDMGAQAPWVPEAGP

[39] = biological target: Glycogen synthase kinase-3 beta (Homo sapiens) (UniProt P49841); details: Compound concentration 1000.0 nM
[40] = biological target: Serine/threonine-protein kinase 24 (Homo sapiens) (UniProt Q9Y6E0); details: Compound concentration 1000.0 nM
[41] = biological target: Serine/threonine-protein kinase Chk2 (Homo sapiens) (UniProt O96017); details: Compound concentration 1000.0 nM
[42] = system: Receptor-type tyrosine-protein kinase FLT3 (Homo sapiens), P36888 [UNDEFINED MUTATION]; details: Compound concentration 1000.0 nM
[43] = biological target: cAMP-dependent protein kinase catalytic subunit PRKX (Homo sapiens) (UniProt P51817); details: Compound concentration 1000.0 nM

`Cc1nc(Cc2cccc(C(F)(F)F)c2)sc1-c1ccc(C(N)=O)nc1` [TP-024n] was tested, and the residual activity [1] was 100%, the inhibition [2] was 9.72% and the residual activity [3] was 44%. It also gave an inhibition [4] of -1.63%, an inhibition [5] of 7.74% and a residual activity [6] of 90%. The residual activity [7] was 83%, the residual activity [8] was 100% and the residual activity [9] was 100%. It also gave a residual activity [10] of 81%, a residual activity [11] of 100% and a residual activity [12] of 83%. It also gave a residual activity [13] of 100%, a residual activity [14] of 88% and a residual activity [15] of 100%. The residual activity [16] was 100%, the residual activity [17] was 80% and the residual activity [18] was 100%. For the same molecule, the residual activity [19] was 100%, the residual activity [20] was 88% and the residual activity [21] was 97%. The inhibition [22] was 11.2%, the residual activity [23] was 86% and the residual activity [24] was 83%. The residual activity [25] was 100%, the residual activity [26] was 100% and the residual activity [27] was 82%. It also gave a residual activity [28] of 100%, an inhibition [29] of 2.07% and a residual activity [30] of 90%. For the same molecule, the residual activity [31] was 93%, the residual activity [32] was 88% and the residual activity [33] was 87%. For the same molecule, the residual activity [34] was 70%, the residual activity [35] was 77% and the residual activity [36] was 100%. It also gave a residual activity [37] of 76%, a residual activity [38] of 100% and a residual activity [39] of 100%. For the same molecule, the residual activity [40] was 100%, the residual activity [41] was 100% and the residual activity [42] was 100%. The residual activity [43] was 100%.
With `Cc1cc(-n2nc(Cc3cc(F)cc(C(F)(F)F)c3)nc2C)ccc1C(N)=O` [TP-024] the residual activity [1] was 100%, the inhibition [2] was 14.4% and the residual activity [3] was 49%. For the same molecule, the inhibition [4] was 4.48%, the inhibition [5] was 1.73% and the residual activity [6] was 78%. It also gave a residual activity [7] of 100%, a residual activity [8] of 99% and a residual activity [9] of 100%. The residual activity [10] was 100%, the residual activity [11] was 100% and the residual activity [12] was 77%. The residual activity [13] was 100%, the residual activity [14] was 100% and the residual activity [15] was 100%. It also gave a residual activity [16] of 87%, a residual activity [17] of 100% and a residual activity [18] of 100%. The residual activity [19] was 100%, the residual activity [20] was 100% and the residual activity [21] was 94%. For the same molecule, the inhibition [22] was -2.07%, the residual activity [23] was 88% and the residual activity [24] was 83%. It also gave a residual activity [25] of 100%, a residual activity [26] of 100% and a residual activity [27] of 100%. The residual activity [28] was 79%, the inhibition [29] was -1.39% and the residual activity [30] was 95%. The residual activity [31] was 100%, the residual activity [32] was 89% and the residual activity [33] was 90%. It also gave a residual activity [34] of 84%, a residual activity [35] of 71% and a residual activity [36] of 100%. It also gave a residual activity [37] of 69%, a residual activity [38] of 84% and a residual activity [39] of 98%. The residual activity [40] was 100%, the residual activity [41] was 100% and the residual activity [42] was 100%. It also gave a residual activity [43] of 100%.
